Experimental data as given in PubChem BioAssay (NCI).
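Dose response: 5 concentrations. Exposure: 48 h. Format: 96-well plates. Endpoint: linear interpolation; highest concentration if not reached. TGI marks complete inhibition of growth.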

Assays:
Experiment in all cases: NCI-60 cell line screen, 48 h
UO-31 renal = tested on: UO-31 renal
M14 melanoma = tested on: M14 melanoma
ACHN renal = tested on: ACHN renal
UACC-62 melanoma = tested on: UACC-62 melanoma
SN12C renal = tested on: SN12C renal
T-47D breast = tested on: T-47D breast
SK-MEL-2 melanoma = tested on: SK-MEL-2 melanoma
NCI-H226 lung = tested on: NCI-H226 lung
A498 renal = tested on: A498 renal
NCI-H23 lung = tested on: NCI-H23 lung
HCT-116 colon = tested on: HCT-116 colon
OVCAR-5 ovarian = tested on: OVCAR-5 ovarian
MDA-MB-231 breast = tested on: MDA-MB-231 breast
SR leukemia = tested on: SR leukemia
SK-OV-3 ovarian = tested on: SK-OV-3 ovarian
PC-3 prostate = tested on: PC-3 prostate
SK-MEL-28 melanoma = tested on: SK-MEL-28 melanoma
OVCAR-3 ovarian = tested on: OVCAR-3 ovarian
HT29 colon = tested on: HT29 colon
OVCAR-8 ovarian = tested on: OVCAR-8 ovarian
SF-539 CNS = tested on: SF-539 CNS
CAKI-1 renal = tested on: CAKI-1 renal
SK-MEL-5 melanoma = tested on: SK-MEL-5 melanoma
HCC-2998 colon = tested on: HCC-2998 colon
SW-620 colon = tested on: SW-620 colon
OVCAR-4 ovarian = tested on: OVCAR-4 ovarian
HL-60(TB) leukemia = tested on: HL-60(TB) leukemia
SNB-19 CNS = tested on: SNB-19 CNS
KM12 colon = tested on: KM12 colon
HS 578T breast = tested on: HS 578T breast
K-562 leukemia = tested on: K-562 leukemia
MDA-MB-435 = tested on: MDA-MB-435
SF-268 CNS = tested on: SF-268 CNS
U251 CNS = tested on: U251 CNS
MDA-N = tested on: MDA-N
786-0 renal = tested on: 786-0 renal
HCT-15 colon = tested on: HCT-15 colon
A549 NSCLC = tested on: A549 NSCLC
MCF7 breast = tested on: MCF7 breast
TK-10 renal = tested on: TK-10 renal
MALME-3M melanoma = tested on: MALME-3M melanoma
IGROV1 ovarian = tested on: IGROV1 ovarian
SF-295 CNS = tested on: SF-295 CNS
SNB-75 CNS = tested on: SNB-75 CNS
NCI-H460 lung = tested on: NCI-H460 lung
MOLT-4 leukemia = tested on: MOLT-4 leukemia
RXF 393 renal = tested on: RXF 393 renal
UACC-257 melanoma = tested on: UACC-257 melanoma
RPMI-8226 leukemia = tested on: RPMI-8226 leukemia
CCRF-CEM leukemia = tested on: CCRF-CEM leukemia
DU-145 prostate = tested on: DU-145 prostate
HOP-92 NSCLC = tested on: HOP-92 NSCLC
HOP-62 NSCLC = tested on: HOP-62 NSCLC
COLO 205 colon = tested on: COLO 205 colon
NCI-H522 lung = tested on: NCI-H522 lung
BT-549 breast = tested on: BT-549 breast
EKVX NSCLC = tested on: EKVX NSCLC
LOX IMVI melanoma = tested on: LOX IMVI melanoma
NCI/ADR-RES ovarian = tested on: NCI/ADR-RES ovarian

SMILES: COc1ccc2nc3n[nH]c(N)c3nc2c1
- TGI (UO-31 renal): 55 µM
- TGI (M14 melanoma): 27.6 µM
- TGI (ACHN renal): > 23.7 µM
- TGI (UACC-62 melanoma): 19.8 µM
- TGI (SN12C renal): > 69.1 µM
- TGI (T-47D breast): 46.5 µM
- TGI (SK-MEL-2 melanoma): 17.5 µM
- TGI (NCI-H226 lung): 24.8 µM
- TGI (A498 renal): > 62.3 µM
- TGI (NCI-H23 lung): 15.5 µM
- TGI (HCT-116 colon): > 32.8 µM
- TGI (OVCAR-5 ovarian): > 87.2 µM
- TGI (MDA-MB-231 breast): 64.4 µM
- TGI (SR leukemia): > 78 µM
- TGI (SK-OV-3 ovarian): > 64.9 µM
- TGI (PC-3 prostate): 36.9 µM
- TGI (SK-MEL-28 melanoma): 42.2 µM
- TGI (OVCAR-3 ovarian): 38.3 µM
- TGI (HT29 colon): 36.9 µM
- TGI (OVCAR-8 ovarian): 32.5 µM
- TGI (SF-539 CNS): 12 µM
- TGI (CAKI-1 renal): > 90.6 µM
- TGI (SK-MEL-5 melanoma): > 29.1 µM
- TGI (HCC-2998 colon): > 74 µM
- TGI (SW-620 colon): 45.9 µM
- TGI (OVCAR-4 ovarian): > 87.3 µM
- TGI (HL-60(TB) leukemia): 4.48 µM
- TGI (SNB-19 CNS): > 100 µM
- TGI (KM12 colon): > 93 µM
- TGI (HS 578T breast): 23.8 µM
- TGI (K-562 leukemia): > 100 µM
- TGI (MDA-MB-435): 72.3 µM
- TGI (SF-268 CNS): 23.8 µM
- TGI (U251 CNS): > 56.3 µM
- TGI (MDA-N): 44.4 µM
- TGI (786-0 renal): > 65.9 µM
- TGI (HCT-15 colon): > 93.7 µM
- TGI (A549 NSCLC): > 26.5 µM
- TGI (MCF7 breast): > 26.7 µM
- TGI (TK-10 renal): > 75.7 µM
- TGI (MALME-3M melanoma): 69.6 µM
- TGI (IGROV1 ovarian): 17.1 µM
- TGI (SF-295 CNS): > 76.7 µM
- TGI (SNB-75 CNS): 21.7 µM
- TGI (NCI-H460 lung): > 84.2 µM
- TGI (MOLT-4 leukemia): > 100 µM
- TGI (RXF 393 renal): 5.91 µM
- TGI (UACC-257 melanoma): 90.4 µM
- TGI (RPMI-8226 leukemia): 19 µM
- TGI (CCRF-CEM leukemia): > 25.7 µM
- TGI (DU-145 prostate): > 49.2 µM
- TGI (HOP-92 NSCLC): 48.6 µM
- TGI (HOP-62 NSCLC): > 76.5 µM
- TGI (COLO 205 colon): 18.9 µM
- TGI (NCI-H522 lung): 27.3 µM
- TGI (BT-549 breast): 62.9 µM
- TGI (EKVX NSCLC): 45.6 µM
- TGI (LOX IMVI melanoma): 20.4 µM
- TGI (NCI/ADR-RES ovarian): 33.8 µM

SMILES: Cc1cc2nc3[nH]c4c(Cl)cc(Cl)cc4c3nc2cc1C
- TGI (UO-31 renal): > 100 µM
- TGI (M14 melanoma): > 100 µM
- TGI (ACHN renal): > 100 µM
- TGI (UACC-62 melanoma): > 100 µM
- TGI (SN12C renal): > 100 µM
- TGI (T-47D breast): > 100 µM
- TGI (SK-MEL-2 melanoma): > 100 µM
- TGI (NCI-H226 lung): > 100 µM
- TGI (A498 renal): > 100 µM
- TGI (NCI-H23 lung): > 100 µM
- TGI (HCT-116 colon): > 100 µM
- TGI (OVCAR-5 ovarian): > 100 µM
- TGI (MDA-MB-231 breast): > 100 µM
- TGI (SR leukemia): > 100 µM
- TGI (SK-OV-3 ovarian): > 100 µM
- TGI (PC-3 prostate): > 100 µM
- TGI (SK-MEL-28 melanoma): > 100 µM
- TGI (OVCAR-3 ovarian): > 100 µM
- TGI (HT29 colon): > 100 µM
- TGI (OVCAR-8 ovarian): > 100 µM
- TGI (SF-539 CNS): > 100 µM
- TGI (CAKI-1 renal): > 100 µM
- TGI (SK-MEL-5 melanoma): > 100 µM
- TGI (SW-620 colon): > 100 µM
- TGI (OVCAR-4 ovarian): > 100 µM
- TGI (HL-60(TB) leukemia): > 100 µM
- TGI (SNB-19 CNS): > 100 µM
- TGI (KM12 colon): > 100 µM
- TGI (HS 578T breast): > 100 µM
- TGI (K-562 leukemia): > 100 µM
- TGI (MDA-MB-435): > 100 µM
- TGI (SF-268 CNS): > 100 µM
- TGI (U251 CNS): > 100 µM
- TGI (MDA-N): > 100 µM
- TGI (786-0 renal): > 100 µM
- TGI (HCT-15 colon): > 100 µM
- TGI (A549 NSCLC): > 100 µM
- TGI (MCF7 breast): > 100 µM
- TGI (TK-10 renal): 56.4 µM
- TGI (MALME-3M melanoma): > 100 µM
- TGI (IGROV1 ovarian): > 100 µM
- TGI (SF-295 CNS): > 100 µM
- TGI (SNB-75 CNS): 42 µM
- TGI (NCI-H460 lung): > 100 µM
- TGI (MOLT-4 leukemia): > 100 µM
- TGI (RXF 393 renal): > 100 µM
- TGI (RPMI-8226 leukemia): > 100 µM
- TGI (CCRF-CEM leukemia): > 100 µM
- TGI (DU-145 prostate): > 100 µM
- TGI (HOP-92 NSCLC): > 100 µM
- TGI (HOP-62 NSCLC): > 100 µM
- TGI (COLO 205 colon): > 100 µM
- TGI (NCI-H522 lung): > 100 µM
- TGI (BT-549 breast): > 100 µM
- TGI (EKVX NSCLC): > 100 µM
- TGI (LOX IMVI melanoma): > 100 µM
- TGI (NCI/ADR-RES ovarian): > 100 µM
